Data taken from patent US20240252488A1 (KOREA RESEARCH INSTITUTE OF CHEMICAL TECHNOLOGY, priority 2020, published 2024).

Assays:
FADD−/− Jurkat cells = assay: Necroptosis inhibition assay, TNF-α-induced necroptosis (CellTiter-Glo 2.0); type: cell-based, human; conditions: TNF-α 15 ng/mL; for Necroptosis inhibition assay (Rescue %) 1 μM: compound 1 μM; for Necroptosis inhibition assay (Rescue %) 10 μM: compound 10 μM
How it was run: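 Luminescent ATP measurement gave viability, from which cytotoxicity and necroptosis inhibition rate were derived. Before that, cells (5.0×10^5 cells/mL) saw compound at 0.1, 1 or 10 μM final for 30 minutes at room temperature, then TNF-α (15 ng/mL final) for 20 to 24 hours at 37° C.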

MLKL [1] = target: T1, MLKL (Homo sapiens, UniProt Q8NB16); assay: MLKL degradation assay in HepG2 cell line (western blot); type: cell-based; design: endogenous in cells; host or cells: HepG2 or HaCaT; conditions: cell line not given; for Degradation assay (Degradation %) 1 μM: compound 1 μM; for Degradation assay (Degradation %) 10 μM: compound 10 μM
T1 sequence (Q8NB16 1-471): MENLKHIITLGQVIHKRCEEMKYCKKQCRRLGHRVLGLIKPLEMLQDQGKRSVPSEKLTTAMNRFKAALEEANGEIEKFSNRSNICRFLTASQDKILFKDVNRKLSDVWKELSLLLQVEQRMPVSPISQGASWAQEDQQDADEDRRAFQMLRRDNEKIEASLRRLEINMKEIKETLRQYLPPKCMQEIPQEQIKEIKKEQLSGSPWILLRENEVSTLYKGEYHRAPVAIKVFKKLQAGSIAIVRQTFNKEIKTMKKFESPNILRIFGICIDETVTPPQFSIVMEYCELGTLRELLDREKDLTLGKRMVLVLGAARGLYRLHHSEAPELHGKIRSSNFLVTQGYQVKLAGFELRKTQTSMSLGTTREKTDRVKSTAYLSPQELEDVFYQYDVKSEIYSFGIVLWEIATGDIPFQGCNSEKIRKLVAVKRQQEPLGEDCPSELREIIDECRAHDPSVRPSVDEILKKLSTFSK
Protocol: MLKL degradation ability was evaluated in the following method.
1 mL of Human liver cancer cell line (HepG2 cell line) or human skin cell line (HaCaT cell line) was equally distributed into each well at 2.0×10^5 cells/mL in a 12-well cell culture plate. On the next day, the medium was replaced with a medium made so that the final concentration of test compound was 1 or 10 μM (1 mL/well), and incubated in 5% CO2, at 37° C. for 20-24 hours (Thermo scientific, Forma steri-cycle).
For protein preparation after incubation, cells were washed with 1×TBST, and 60 μL of RIPA lysis buffer containing Halt™ Protease and Phosphatase Inhibitor Cocktail was dispensed into each well. After scraping the cells with a scraper, the cells were recovered, and the pallet was homogenized and reacted on ice for 30 minutes. After the cells were centrifuged at 13,000 rpm, 10 minutes, 4° C., the supernatant was transferred to a new E-tube. For protein quantification, after dispensing sample and BCA (0-4 mg/ml) in a 96 well plate, 100 μL of BCA was dispensed and reacted in a 37° C. incubator for 30 minutes. After measuring the absorbance (SpectraMax, M5e, 562 nm), the amount of the sample was adjusted with the same concentration of protein and 4× Laemmli sample buffer, DW, and reacted at 100° C. for 5 minutes.
After assembling the MP TGX Precast Gel in the Mini-PROTEAN Tetra Cell, the same protein (10-15 μg) was added in an 8-10 μL volume per well, 1×Tris-Glycine Buffer was added, and loading was performed. After loading was completed, transfer was performed using Pierce G2 Fast Blotter and Pierce 1-Step Transfer Buffer. After completion of the transfer, 10 ml of SuperBlock™ Blocking Buffer was dispensed and reacted at room temperature for 10 minutes. 5% BSA containing the primary antibody was dispensed and reacted over night at 4° C. The next day, washing was performed three times with 1×TBST at room temperature for 10 minutes. 5% BSA containing the secondary antibody was dispensed and reacted at room temperature for 1 hour. Washing was performed three times with 1×TBST at room temperature for 10 minutes. The amount of protein expression was measured using chemiluminescence (LuminoGraph, ATTO).

MLKL [2] = target: T1, MLKL; assay: Measurement of binding affinity with MLKL receptor (competitive binding assay, Kd); design: made in house; host or cells: HEK 293 cell line (T7 phage in E. coli BL21-derived host is also described)
How it was run: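 MLKL was produced in HEK 293 cells and tagged with DNA for detection. Liganded beads were blocked with excess biotin and washed to cut non-specific binding, then compounds (111× DMSO stocks, 0.9% DMSO in assay) competed for binding. Eluate kinase was measured by qPCR for Kd.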

| SMILES | Necroptosis inhibition assay (Rescue %) 1 μM (FADD−/− Jurkat cells) [%] | Necroptosis inhibition assay (Rescue %) 10 μM (FADD−/− Jurkat cells) [%] | Degradation assay (Degradation %) 1 μM (MLKL [1]) [%] | Degradation assay (Degradation %) 10 μM (MLKL [1]) [%] | Kd (MLKL [2]) [nM] |
| --- | --- | --- | --- | --- | --- |
| Nc1ncc(-c2cnn(C3CCN(CCCCCCNC(=O)CNc4cccc5c4C(=O)N(C4CCC(=O)NC4=O)C5=O)CC3)c2)nc1C(=O)O[C@@H](C(=O)Nc1ccc(F)cc1)c1ccccc1 (stereo partly drawn) [TDH-101, (R)-2-((4-fluorophenyl)amino)-2-oxo-1-phenylethyl 3-amino-6-(1-(1-(6-(2-((2-(2,6-dioxopiperidin-3-yl)-1,3-dioxoisoindolin-4-yl)amino)acetamido)hexyl)piperidin-4-yl)-1H-pyrazol-4-yl)pyrazine-2-carboxylate] | 50.77 | 18.45 | 35.85 | 29.42 | 1.9 |
| Nc1ncc(-c2cnn(C3CCN(CCOCCOCCNC(=O)CNc4cccc5c4C(=O)N(C4CCC(=O)NC4=O)C5=O)CC3)c2)nc1C(=O)O[C@@H](C(=O)Nc1ccc(F)cc1)c1ccccc1 (stereo partly drawn) [TDH-102, (R)-2-((4-fluorophenyl)amino)-2-oxo-1-phenylethyl 3-amino-6-(1-(1-(2-(2-(2-(2-((2-(2,6-dioxopiperidin-3-yl)-1,3-dioxoisoindolin-4-yl)amino)acetamido)ethoxy)ethoxy)ethyl)piperidin-4-yl)-1H-pyrazol-4-yl)pyrazine-2-carboxylate] | 39.17 | 42.99 | 12.94 | 42.92 | 2.1 |
| Nc1ncc(-c2cnn(C3CCN(CCOCCOCCNC(=O)CNc4ccc5c(c4)C(=O)N(C4CCC(=O)NC4=O)C5=O)CC3)c2)nc1C(=O)O[C@@H](C(=O)Nc1ccc(F)cc1)c1ccccc1 (stereo partly drawn) [TDH-103, (R)-2-((4-fluorophenyl)amino)-2-oxo-1-phenylethyl 3-amino-6-(1-(1-(2-(2-(2-(2-((2-(2,6-dioxopiperidin-3-yl)-1,3-dioxoisoindolin-5-yl)amino)acetamido)ethoxy)ethoxy)ethyl)piperidin-4-yl)-1H-pyrazol-4-yl)pyrazine-2-carboxylate] | 34.93 | 59.65 | 5.5 | 52.04 | 1.4 |
| Nc1ncc(-c2cnn(C3CCN(C(=O)COCCOCCNc4cccc5c4C(=O)N(C4CCC(=O)NC4=O)C5=O)CC3)c2)nc1C(=O)O[C@@H](C(=O)Nc1ccc(F)cc1)c1ccccc1 (stereo partly drawn) [TDH-104, (R)-2-((4-fluorophenyl)amino)-2-oxo-1-phenylethyl 3-amino-6-(1-(1-(2-(2-(2-((2-(2,6-dioxopiperidin-3-yl)-1,3-dioxoisoindolin-4-yl)amino)ethoxy)ethoxy)acetyl)piperidin-4-yl)-1H-pyrazol-4-yl)pyrazine-2-carboxylate] | 25.6 | 22.88 | 14.79 | 62.43 | 48 |
| Nc1ncc(-c2cnn(C3CCN(C(=O)COCCOCCNc4ccc5c(c4)C(=O)N(C4CCC(=O)NC4=O)C5=O)CC3)c2)nc1C(=O)O[C@@H](C(=O)Nc1ccc(F)cc1)c1ccccc1 (stereo partly drawn) [TDH-105, (R)-2-((4-fluorophenyl)amino)-2-oxo-1-phenylethyl 3-amino-6-(1-(1-(2-(2-(2-((2-(2,6-dioxopiperidin-3-yl)-1,3-dioxoisoindolin-5-yl)amino)ethoxy)ethoxy)acetyl)piperidin-4-yl)-1H-pyrazol-4-yl)pyrazine-2-carboxylate] | 27.07 | 15.46 | 43.02 | 40.8 | 6.1 |
| Nc1ncc(-c2cnn(C3CCN(CCCCCCNC(=O)C4CCN(c5cccc6c5C(=O)N(C5CCC(=O)NC5=O)C6=O)CC4)CC3)c2)nc1C(=O)O[C@@H](C(=O)Nc1ccc(F)cc1)c1ccccc1 (stereo partly drawn) [TDH-108, (R)-2-((4-fluorophenyl)amino)-2-oxo-1-phenylethyl 3-amino-6-(1-(1-(6-(1-(2-(2,6-dioxopiperidin-3-yl)-1,3-dioxoisoindolin-4-yl)piperidine-4-carboxamido)hexyl)piperidin-4-yl)-1H-pyrazol-4-yl)pyrazine-2-carboxylate] | 75.49 | 43.94 | 48.06 | 43.66 | 4.4 |
| Nc1ncc(-c2cnn(C3CCN(CCCCCCNC(=O)C4CCN(c5ccc6c(c5)C(=O)N(C5CCC(=O)NC5=O)C6=O)CC4)CC3)c2)nc1C(=O)O[C@@H](C(=O)Nc1ccc(F)cc1)c1ccccc1 (stereo partly drawn) [TDH-109, (R)-2-((4-fluorophenyl)amino)-2-oxo-1-phenylethyl 3-amino-6-(1-(1-(6-(1-(2-(2,6-dioxopiperidin-3-yl)-1,3-dioxoisoindolin-5-yl)piperidine-4-carboxamido)hexyl)piperidin-4-yl)-1H-pyrazol-4-yl)pyrazine-2-carboxylate] | 71.74 | 48.69 | 48.55 | 56.91 | 2.8 |
| Nc1ncc(-c2cnn(C3CCN(CCOCCOCCNC(=O)C4CCN(c5cccc6c5C(=O)N(C5CCC(=O)NC5=O)C6=O)CC4)CC3)c2)nc1C(=O)O[C@@H](C(=O)Nc1ccc(F)cc1)c1ccccc1 (stereo partly drawn) [TDH-110, (R)-2-((4-fluorophenyl)amino)-2-oxo-1-phenylethyl 3-amino-6-(1-(1-(2-(2-(2-(1-(2-(2,6-dioxopiperidin-3-yl)-1,3-dioxoisoindolin-4-yl)piperidine-4-carboxamido)ethoxy)ethoxy)ethyl)piperidin-4-yl)-1H-pyrazol-4-yl)pyrazine-2-carboxylate] | 55.93 | 72.8 | 9.84 | 46.89 | 5.2 |
| Nc1ncc(-c2cnn(C3CCN(CCOCCOCCNC(=O)C4CCN(c5ccc6c(c5)C(=O)N(C5CCC(=O)NC5=O)C6=O)CC4)CC3)c2)nc1C(=O)O[C@@H](C(=O)Nc1ccc(F)cc1)c1ccccc1 (stereo partly drawn) [TDH-111, (R)-2-((4-fluorophenyl)amino)-2-oxo-1-phenylethyl 3-amino-6-(1-(1-(2-(2-(2-(1-(2-(2,6-dioxopiperidin-3-yl)-1,3-dioxoisoindolin-5-yl)piperidine-4-carboxamido)ethoxy)ethoxy)ethyl)piperidin-4-yl)-1H-pyrazol-4-yl)pyrazine-2-carboxylate] | 45.17 | 78.08 | 4.54 | 28.85 | 5.3 |
